The structures appear in SMILES notation. Converted amounts (≈) assume the structure as drawn. Numbered stars: 1 amine (or outer) side, 2 acyl side, 3 side chain; on linkers, the order of the positions; unused ones are H or OH. Bridge positions count the residues as written; N and C are the ends. Square brackets hold non-standard residues; d marks the D form. Peptide text beside a SMILES is read from it. * marks the point of attachment. hTyr(3S-OH,4S-OH,3'-OSO3H) = N[C@H](C(=O)O)[C@H](O)[C@@H](O)c1ccc(O)c(OS(=O)(=O)O)c1; pTerphenylCO(4''-OnC5H11) = CCCCCOc1ccc(-c2ccc(-c3ccc(C(=O)*)cc3)cc2)cc1; Orn(4R-OH,5R-OH) = O=C([C@H](C[C@@H](O)[C@@H](O)N[*:3])N[*:1])[*:2]; hTyr(3S-OH,4S-OH) = N[C@H](C(=O)O)[C@H](O)[C@@H](O)c1ccc(O)cc1; Pro(3S-OH,4S-Me) = C[C@H]1CN[C@H](C(=O)O)[C@H]1O; X1 = CCCCCOc1ccc(-c2cc(-c3ccc(C(=O)*)cc3)no2)cc1; Gln(3R-OH) = NC(=O)C[C@@H](O)[C@H](N)C(=O)O; Hyp = O=C(O)[C@@H]1C[C@@H](O)CN1

In experiment [1] the test system is Aspergillus fumigatus. Briefly: Antifungal activity against Aspergillus fumigatus expressing wild-type fks1 gene KU80delta after 24 to 48 hrs by broth dilution susceptibility test. Format: functional. Conditions: read-out: MEC. Background: Broth dilution looks for growth in wells or tubes with falling amounts of substance.
The test system of experiment [2] is Aspergillus fumigatus. Briefly: Antifungal activity against Aspergillus fumigatus expressing fks1 gene EMFR-S678P/WT mutant after 24 to 48 hrs by broth dilution susceptibility test. Format: functional. Conditions: read-out: MEC.
Experiment [3] relates to Aspergillus fumigatus. In words: Ratio of IC50 for Aspergillus fumigatus 1,3-beta-D-glucan synthase EMFR-S678P mutant to IC50 for Aspergillus fumigatus wild-type 1,3-beta-D-glucan synthase KU80delta.
Experiment [4] in a line: Inhibition of wild-type 1,3-beta-D-glucan synthase KU80delta from Aspergillus fumigatus assessed as incorporation of [3H]glucose.
Experiment [5] in a line: Inhibition of 1,3-beta-D-glucan synthase EMFR-S678P/WT mutant from Aspergillus fumigatus assessed as incorporation of [3H]glucose.
The test system of experiment [6] is Aspergillus fumigatus. In words: Antifungal activity against Aspergillus fumigatus expressing fks1 gene EMFR-S678P mutant after 24 to 48 hrs by broth dilution susceptibility test. Conditions: read-out: MEC. Format: functional.
The target of a further experiment is Fksp (Neosartorya fumigata (Aspergillus fumigatus), UniProt P87204, S678P). Briefly: Inhibition of 1,3-beta-D-glucan synthase EMFR-S678P mutant from Aspergillus fumigatus assessed as incorporation of [3H]glucose.
Chain of Fksp (P87204 entry or part of it S678P): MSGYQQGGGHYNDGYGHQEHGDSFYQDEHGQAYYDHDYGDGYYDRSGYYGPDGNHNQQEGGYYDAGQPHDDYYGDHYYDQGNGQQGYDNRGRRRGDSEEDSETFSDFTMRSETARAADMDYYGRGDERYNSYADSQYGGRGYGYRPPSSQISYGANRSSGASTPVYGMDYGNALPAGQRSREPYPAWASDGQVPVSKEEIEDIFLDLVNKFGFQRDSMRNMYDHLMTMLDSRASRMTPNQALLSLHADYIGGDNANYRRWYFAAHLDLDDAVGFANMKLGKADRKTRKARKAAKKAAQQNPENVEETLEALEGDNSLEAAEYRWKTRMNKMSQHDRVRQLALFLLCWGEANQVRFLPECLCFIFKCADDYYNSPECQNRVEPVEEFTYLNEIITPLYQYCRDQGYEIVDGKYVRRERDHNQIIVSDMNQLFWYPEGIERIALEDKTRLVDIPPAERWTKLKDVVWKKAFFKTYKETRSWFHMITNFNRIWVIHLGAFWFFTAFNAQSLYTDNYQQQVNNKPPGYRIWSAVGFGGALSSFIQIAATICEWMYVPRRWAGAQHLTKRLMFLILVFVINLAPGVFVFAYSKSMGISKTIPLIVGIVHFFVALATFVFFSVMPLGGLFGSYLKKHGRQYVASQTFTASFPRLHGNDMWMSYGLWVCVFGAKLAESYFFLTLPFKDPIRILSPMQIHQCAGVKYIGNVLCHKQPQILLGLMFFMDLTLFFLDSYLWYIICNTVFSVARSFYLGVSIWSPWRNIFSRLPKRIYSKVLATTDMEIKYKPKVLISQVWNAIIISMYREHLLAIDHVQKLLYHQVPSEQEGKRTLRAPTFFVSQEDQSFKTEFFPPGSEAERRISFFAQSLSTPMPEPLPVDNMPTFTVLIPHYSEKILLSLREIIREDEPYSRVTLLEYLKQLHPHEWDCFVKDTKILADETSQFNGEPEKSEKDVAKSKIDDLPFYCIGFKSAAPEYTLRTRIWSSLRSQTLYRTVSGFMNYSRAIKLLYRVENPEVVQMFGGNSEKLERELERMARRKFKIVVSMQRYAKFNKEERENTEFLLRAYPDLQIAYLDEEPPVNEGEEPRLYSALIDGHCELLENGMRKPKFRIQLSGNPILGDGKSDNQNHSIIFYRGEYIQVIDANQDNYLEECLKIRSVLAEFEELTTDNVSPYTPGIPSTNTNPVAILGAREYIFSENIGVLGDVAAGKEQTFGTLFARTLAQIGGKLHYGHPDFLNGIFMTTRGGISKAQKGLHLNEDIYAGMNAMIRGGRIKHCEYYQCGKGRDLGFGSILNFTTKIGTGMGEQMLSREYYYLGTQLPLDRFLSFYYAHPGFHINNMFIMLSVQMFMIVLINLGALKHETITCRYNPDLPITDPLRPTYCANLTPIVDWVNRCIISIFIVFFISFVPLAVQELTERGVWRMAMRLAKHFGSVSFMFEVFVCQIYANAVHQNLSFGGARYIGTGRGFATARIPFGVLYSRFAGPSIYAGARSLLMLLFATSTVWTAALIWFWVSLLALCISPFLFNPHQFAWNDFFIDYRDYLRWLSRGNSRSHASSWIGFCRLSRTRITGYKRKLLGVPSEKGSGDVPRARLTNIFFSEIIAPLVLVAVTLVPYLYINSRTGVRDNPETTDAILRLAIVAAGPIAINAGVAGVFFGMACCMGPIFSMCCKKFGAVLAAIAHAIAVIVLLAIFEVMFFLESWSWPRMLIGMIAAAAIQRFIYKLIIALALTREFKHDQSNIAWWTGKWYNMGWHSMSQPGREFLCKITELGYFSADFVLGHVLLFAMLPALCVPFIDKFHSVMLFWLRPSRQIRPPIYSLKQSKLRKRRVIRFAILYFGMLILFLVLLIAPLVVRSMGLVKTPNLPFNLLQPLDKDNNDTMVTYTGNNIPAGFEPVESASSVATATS

Broadly, the IC50 is the concentration that gives 50% inhibition. As for `CCCCCOc1ccc(-c2ccc(-c3ccc(C(=O)N[C@H]4C[C@@H](O)[C@@H](O)NC(=O)[C@@H]5[C@@H](O)[C@@H](C)CN5C(=O)[C@H]([C@@H](C)O)NC(=O)[C@H]([C@H](O)[C@@H](O)c5ccc(O)cc5)NC(=O)[C@@H]5C[C@@H](O)CN5C(=O)[C@H]([C@@H](C)O)NC4=O)cc3)cc2)cc1` [ANIDULAFUNGIN] ({pTerphenylCO(4''-OnC5H11)}-[Orn(4R-OH,5R-OH)]T[Hyp][hTyr(3S-OH,4S-OH)]T[Pro(3S-OH,4S-Me)]; lactam 1-C), the minimal effective concentration with Aspergillus fumigatus [1] amounted to 0.015 µg/mL; with Aspergillus fumigatus [2], 8 µg/mL; in the experiment with Aspergillus fumigatus [6] it was 16 µg/mL. Besides, in the experiment with Aspergillus fumigatus [3], the Ratio IC50 amounted to 122. Further, the IC50 in experiment [4] was 0.24 ng/mL (≈ 0.21 nM); in experiment [5], 0.37 ng/mL (≈ 0.324 nM); on Fksp it was 25.6 nM.

In the case of `CCCCCOc1ccc(-c2cc(-c3ccc(C(=O)N[C@H]4C[C@@H](O)[C@@H](O)NC(=O)[C@@H]5[C@@H](O)[C@@H](C)CN5C(=O)[C@H]([C@H](O)CC(N)=O)NC(=O)[C@H]([C@H](O)[C@@H](O)c5ccc(O)c(OS(=O)(=O)O)c5)NC(=O)[C@@H]5C[C@@H](O)CN5C(=O)[C@H]([C@@H](C)O)NC4=O)cc3)no2)cc1` [MICAFUNGIN] (X1-[Orn(4R-OH,5R-OH)]T[Hyp][hTyr(3S-OH,4S-OH,3'-OSO3H)][Gln(3R-OH)][Pro(3S-OH,4S-Me)]; lactam 1-C), the minimal effective concentration is 0.015 µg/mL with Aspergillus fumigatus [1], 8 µg/mL in the experiment on Aspergillus fumigatus [2] and above 16 µg/mL with Aspergillus fumigatus [6]. Besides, the Ratio IC50 in the experiment on Aspergillus fumigatus [3] is 20. Moreover, the values for the IC50 (in experiment [4]; in experiment [5]; on Fksp) were 0.63 ng/mL (≈ 0.496 nM), 0.5 ng/mL (≈ 0.394 nM) and 9.93 nM, respectively.

As to `CC[C@H](C)C[C@H](C)CCCCCCCCC(=O)N[C@H]1C[C@@H](O)[C@@H](NCCN)NC(=O)[C@@H]2[C@@H](O)CCN2C(=O)[C@H]([C@H](O)CCN)NC(=O)[C@H]([C@H](O)[C@@H](O)c2ccc(O)cc2)NC(=O)[C@@H]2C[C@@H](O)CN2C(=O)[C@H]([C@@H](C)O)NC1=O` [CASPOFUNGIN], the minimal effective concentration in the experiment on Aspergillus fumigatus [1] is 0.25 µg/mL; in the experiment on Aspergillus fumigatus [2], above 16 µg/mL; in the experiment with Aspergillus fumigatus [6], above 16 µg/mL. In addition, the Ratio IC50 in the experiment on Aspergillus fumigatus [3] was found to be 121. The IC50 is 0.91 ng/mL (≈ 0.832 nM) in experiment [4], 0.12 ng/mL (≈ 0.11 nM) in experiment [5] and 100 nM at Fksp.

Source of the values: ChEMBL document CHEMBL1138536, “A Ser678Pro substitution in Fks1p confers resistance to echinocandin drugs in Aspergillus fumigatus” (Antimicrob Agents Chemother, 2007).
